Data as given in patent publication US5334761A, “Cationic lipids” (Life Technologies, Inc., priority 1992, dated 1994).

Assays:
NIH-3T3 cells = experiment: CAT transient transfection; type: cell-based, mouse; conditions: for DNA transfection (in words): NIH-3T3; for CAT ACTIVITY: 2 μg pSV2CAT, 6 h OPTI MEM serum-free
Procedure: (§1) A one-to-one mixture (by weight) of the desired lipid and dioleylphosphatidyl ethanolamine was prepared in CHCl3. The CHCl3 was removed on the rotary evaporator to obtain a thin film of lipid mixture. The mixture was hydrated with enough water to obtain approximately 1.25 mg of lipid per ml of solution. The solution was passed through a microfluidizer twice and diluted to 1 mg/ml. The liposome formulation was then filtered through a 0.2 μ filter. Compound 8 was also formulated without DOPE either by sonication at 1 mg/ml in water or by dissolving a dried lipid film with ethanol and then adding water to give a final concentration of 2.5 mg/ml. Ethanol was 10% of that volume. In some instances, this was further diluted with water to 1 mg/ml, 4% ethanol.
(§2) Baby hamster kidney (BHK-21) , COS-7, HeLa-S3 cells, and normal human fibroblasts isolated from newborn foreskin dermis were grown in Dulbecco's-modified Eagle's medium (DMEM) containing 10% fetal bovine serum (FBS), 2 mM L-glutamine (gln), 0.1 mM MEM nonessential amino acids (NEAA), 100 U/ml penicillin, and 100 μg/ml streptomycin. NIH-3T3 cells were grown in DMEM containing 10% calf serum (CS), 2 mMgln, 0.1 mM NEAA 100 U/ml penicillin, and 100 μg/ml streptomycin. PC12 cells were grown in DMEMcontaining 10% horse serum, 5% FBS, 2 mM gln, 0 1 mMNEAA, 100 U/ml penicillin and 100 μ/ml streptomycin. Jurkat cells (human lymphoid cell line) were grown in RPMI-1640 supplemented with 10% FBS, 2mML-glutamine, 100 U/ml penicillin, and 100 μg/ml streptomycin. Human keratinocytes were isolated from newborn foreskin epidermis and cultured in Keratinocyte Growth Medium (Clonetics, San Diego, Ca.). All cell lines were maintained in a humidified incubator with a 5% CO2 atmosphere at 37° C.
(§3) pSV2CAT (5.0 Kb) was described previously (Gorman, C. M. et al. (1982) Mol. Cell. Biol. 2:1044). pCMVCAT (5.0 Kb) was also described previously (Foecking M. K. and Hofstetter, H. (1986) Gene 45:101). Plasmid DNA was purified by isopycnic centrifugation in CsCl/EtBr gradients after recovery by alkaline lysis (Maniatis, T. et al. (1982) in Molecular Cloning: A Laboratory Manual, Cold Spring Harbor Laboratory, Cold Spring Harbor, N.Y., pp. 90-91).
(§4) For transient transfection of pSV2CAT DNA or pCMVCAT DNA, cells were plated in 6-well tissue culture dishes (35 mm wells) and incubated overnight to approximately 60% confluency. To transfect cells in one well, 1-2 μg of pSV2CAT DNA or pCMVCAT DNA was diluted in 100 μl Opti-MEM I. Cationic lipids were diluted separately in another 100 μl aliquot of Opti-MEM I. The two solutions were then mixed in a polystyrene tube, incubated for 10-15 min at room temperature to allow the formation of a DNA-liposome complex, and diluted to one ml by adding 0.8 ml Opti-MEM I or DMEM containing 5% fetal bovine serum (FBS), 2 mMgln, 0.1 mMNEAA, and lacking antibiotics. The cells were washed once with Opti-MEM I or serum-free DMEM, and the DNA-liposome complex was added directly to the cells. After a six hr incubation at 37° C., the transfection complexes were removed and two ml of DMEM containing 10% FBS, 2 mMgln, 0.2 mMNEAA, 100 U/ml penicillin, and 100 μg/ml streptomycin, was added to each well. Note: human keratinocytes were cultured and transfected in Keratinocyte Growth Medium. Cells were incubated for an additional 48 hrs and lysed in situ by freeze-thawing once or twice in 300 μl 0.1M Tris-HC1, pH 7.8-8.0 containing 0 1% Triton X-100. Cell lysates were assayed for CAT activity.
(§5) Cell lysates were assayed for CAT activity as described by Neumann et al. (1987) BioTechniques 5:444 using [^14 C]-butyryl coenzyme A (New England Nuclear, Boston, Mass.). The enzyme reactions were incubated for 2 hrs at 37° C., overlayed with 3.0 ml Econofluor (New England Nuclear) and then incubated for an additional 2 hrs to allow diffusion of the acetylated chloramphenicol into the scintillation fluid. CAT activity was determined by measuring radioactivity in a liquid scintillation counter. […]

HeLa-S3 cells = experiment: CAT transient transfection; type: cell-based; conditions: for CAT ACTIVITY: 2 μg pSV2CAT, 6 h
Procedure: as §1, §2, §3, §4, §5

[1] = test system: normal human keratinocytes; experiment: CAT transient transfection; type: cell-based; conditions: for CAT ACTIVITY: 2 μg pSV2CAT, 6 h, 50 μl of 300 μl assayed; for DNA transfection (in words): keratinocytes
Procedure: as §1, §2, §3, §4, §5

[2] = % protein (toxicity estimate, Bradford) after transfection; type: cell-based; conditions: human, hela-s3 cells, 2 μg pSV2CAT
Procedure: as §1
(§6) Baby hamster kidney (BHK-21) , COS-7, HeLa-S3 cells, and normal human fibroblasts isolated from newborn foreskin dermis were grown in Dulbecco's-modified Eagle's medium (DMEM) containing 10% fetal bovine serum (FBS), 2 mM L-glutamine (gln), 0.1 mM MEM nonessential amino acids (NEAA), 100 U/ml penicillin, and 100 μg/ml streptomycin. […]
(§7) The "% protein" column indicates the relative amount of protein in the sample tested for CAT activity and therefore provides a way to estimate toxicity of the compounds being tested. […] Protein was measured using a commercially available Bradford protein assay (BioRad Laboratories, Richmond, Ca.). […]

Jurkat cells = experiment: CAT transient transfection; type: cell-based, human; conditions: pSV2CAT, 6 h OPTIMEM
Procedure: as §1, §2, §3
(§8) For transient nuclear expression of pSV2CAT or pCMVCAT in Jurkat cells, cells were washed with Opti-MEM I or serum-free RPMI 1640 containing 2 mM gln and plated in six-well plates at a density of 3×10^6 cells per well in 0.8 ml Opti-MEM I or RPMI 1640. For each transfection, 5 μg pSV2CAT DNA or 2 μg pCMVCAT DNA was diluted in 100 μl Opti-MEM I. Lipids were diluted separately in another 100 μl aliquot of Opti-MEMI. The two solutions were then mixed in a polystyrene tube and incubated for 10-15 min at room temperature. The DNA-liposome complex was added to the cell suspensions and incubated 6 hours at 37° C., after which 4 ml growth medium were added per well (RPMI-1640; 10% FBS). Phorbol myristate acetate (Sigma Chemical Co., St. Louis, Mo.) and phytohemagglutinin (Sigma) were also added to a final concentration of 50 ng/ml and 1 μg/ml, respectively, to activate the cells. Cells were harvested at approximately 48 hours post-transfection by centrifugation. Cell lysates were prepared by resuspending cell pellets at 0° C. in 0.1 M Tris-HC1 pH 8.0 containing 0.1% Triton X-100 and freeze-thawing once. Cell lysates were cleared by centrifugation and assayed for CAT activity.
as §5

[3] = % protein (toxicity estimate, Bradford) after transfection; type: cell-based, human; conditions: human, keratinocytes, 2 μg pSV2CAT, 6 h
Procedure: as §1
as §2, with “C. […]” for “C.”
as §7

[4] = as above; type: cell-based, mouse; conditions: mouse, nih-3t3 cells; 16 μg lipid; 2 μg pSV2CAT; 6 h OPTI MEM serum-free
Procedure: as §1, §6, §7

[5] = as above; type: cell-based, human; conditions: human, jurkat cells, pSV2CAT, 6 h OPTIMEM
Procedure: as §1, §2, §8
The "% protein" column indicates the relative amount of protein in the sample tested for CAT activity and therefore provides a way to estimate toxicity of the compounds being tested. The "CAT Activity" column indicates the relative transfection effectiveness of the lipid formulation in the various cell lines. The control sample was a cell culture grown under similar conditions as those that were transfected, but with no DNA or cationic lipid added. Protein was measured using a commercially available Bradford protein assay (BioRad Laboratories, Richmond, Ca.).
Jurkat cells (3 × 10^6 cells) were transfected in OPTIMEM with
μg of pSV2CAT DNA for 6 hours.
DNA-lipid complexes were made in OPTIMEM. Jurkat cells (3 × 10^
cells) were transfected in RPMI1640 with 2 μg of pCMVCAT DNA for 6

some cell lines [6] = conditions: cited from earlier work; for transfection efficiency relative to DOTMA: some cell lines; for transfection / delivery of nucleic acids: lipid aggregates or liposomes
some cell lines [7] = conditions: cited from earlier work

Compound: CCCCCCCC/C=C\CCCCCCCCOCC(C[N+](C)(C)CCN)OCCCCCCCC/C=C\CCCCCCCC (stereo not drawn) [Compound 2, 1-Propanaminium, N-(2-amino)ethyl-N,N-dimethyl-2,3-bis(9-octadecenyloxy)-bromide]
- DNA transfection (in words) (NIH-3T3 cells): good activity

Compound: CCCCCCCC/C=C\CCCCCCCCOCC(C[N+](C)(C)CCBr)OCCCCCCCC/C=C\CCCCCCCC (stereo not drawn) [Compound 3, 1-Propanaminium, N-[2-(2-bromo)ethyl]-N,N-dimethyl-2,3-bis(9-octadecenyloxy)-,bromide]
- CAT ACTIVITY (HeLa-S3 cells; 6 μg lipid, DMEM, 5% FBS): 78,798 CPM
- CAT ACTIVITY (HeLa-S3 cells; 12 μg lipid, OPTIMEM I, 0% FBS): 29,400 CPM
- DNA transfection (in words) (HeLa-S3 cells; HeLa-S3, presence or absence of serum): good activity
- CAT ACTIVITY ([1]; 10 μg lipid): 10,598 CPM
- viability at 6 h ([2]; 6 μg lipid, DMEM, 5% FBS): 54%
- viability at 6 h ([2]; 12 μg lipid, OPTIMEM I, 0% FBS): 43%
- CAT ACTIVITY (Jurkat cells; 30 μg lipid): 3008 CPM/150 μl
- viability at 6 h ([3]; 10 μg lipid): 42%
- viability at 6 h [4]: 35%
- viability at 6 h ([5]; 30 μg lipid): 97%
- CAT ACTIVITY (NIH-3T3 cells; 16 μg lipid): 6,074 CPM
- DNA transfection (in words) (NIH-3T3 cells): good activity

Compound: CCCCCCCC/C=C\CCCCCCCCOCC(C[N+](C)(C)CCNCCCN)OCCCCCCCC/C=C\CCCCCCCC (stereo not drawn) [Compound 4, 1-Propanaminium, N-[2-[(3-aminopropyl)amino]ethyl]-N,N-dimethyl-2,3-bis(9-octadecenyloxy)-, bromide]
- CAT ACTIVITY ([1]; 40 μg lipid): 20,038 CPM
- DNA transfection (in words) [1]: effective
- CAT ACTIVITY (Jurkat cells; 20 μg lipid): 2252 CPM/150 μl
- CAT ACTIVITY (Jurkat cells; 30 μg lipid): 820 CPM/150 μl
- viability at 6 h ([3]; 40 μg lipid): 41%
- viability at 6 h ([5]; 20 μg lipid): 93%
- viability at 6 h ([5]; 30 μg lipid): 100%
- CAT ACTIVITY (NIH-3T3 cells; 24 μg lipid): 3,114 CPM

Compound: CCCCCCCC/C=C\CCCCCCCCOCC(C[N+](C)(C)CCNCCCNCCCCNCCCN)OCCCCCCCC/C=C\CCCCCCCC (stereo not drawn) [Compound 5, 1-Propanaminium,N-{2-[[3-[[4-[(3-aminopropyl)amino]butyl]-amino]propyl]amino]ethyl}-n,n-dimethyl-2,3-bis-(9-octadecenyloxy)-, bromide]
- DNA transfection (in words) [1]: effective
- CAT ACTIVITY (Jurkat cells; 20 μg lipid): 1170 CPM/150 μl
- viability at 6 h ([5]; 20 μg lipid): 100%

Compound: CC(C)CCC[C@@H](C)[C@H]1CC[C@H]2[C@@H]3CC=C4C[C@@H](OC(=O)NCCN(C)C)CC[C@]4(C)[C@H]3CC[C@]12C [DC-Chol]
- transfection efficiency relative to DOTMA (some cell lines [6]): more efficient transfection
- toxicity relative to DOTMA (some cell lines [7]): lower toxicity

Compound: CCCCCCCCCCCCCCCCCCN(CCCCCCCCCCCCCCCCCC)C(=O)CNC(=O)C(CCCNCCCN)NCCCN (stereo not drawn) [DOGS, 5-carboxyspermylglycine dioctadecylamide]
- transfection / delivery of nucleic acids (some cell lines [6]): efficient transfection
- transfection efficiency relative to DOTMA (some cell lines [6]): more efficient
- toxicity relative to DOTMA (some cell lines [7]): less toxic

Compound: CCCCCCCC/C=C\CCCCCCCCOCC(C[N+](C)(C)C)OCCCCCCCC/C=C\CCCCCCCC (stereo not drawn) [DOTMA]
- transfection / delivery of nucleic acids (some cell lines [6]): efficient delivery of nucleic acids to some types of cells

Compound: CCCCCCCCCCCCCCCC(=O)OCC(COP(=O)(O)OCCNC(=O)C(CCCNCCCN)NCCCN)OC(=O)CCCCCCCCCCCCCCC (stereo not drawn) [DPPES, dipalmitoylphosphatidylethanolamine 5-carboxyspermylamide]
- transfection / delivery of nucleic acids (some cell lines [6]): efficient transfection
- transfection efficiency relative to DOTMA (some cell lines [6]): more efficient
- toxicity relative to DOTMA (some cell lines [7]): less toxic
